Assay results reported in US20260184669A1, “LIPID COMPOUND AND COMPOSITION FOR DELIVERY OF ACTIVE SUBSTANCE” (KOREA RESEARCH INSTIUTE OF BIOSCIENCE AND BIOTECHNOLOGY, priority 2022, published 2026).

Key:
[1] = test system: IL-6 mRNA level in HEK-293T cells; details: human
[2] = Size, polydispersity index and surface charge of mRNA-LNP (Malvern Zetasizer Nano ZS90); format: physicochemical; details: for PDI / size (nm) Number: mRNA-LNP made with the ionizable lipid at its optimal formulation (Table 2); for size (nm) Number: diluted with PBS to 1 μg/mL mRNA; for Zeta (mV): surface charge of mRNA-LNP made with the ionizable lipid at its optimal formulation (Table 2)
Summary of the method: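 Dynamic/electrophoretic light scattering of LNPs diluted in PBS to a final mRNA concentration of 1 μg/mL. Readouts were particle size, PDI and surface charge.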

[3] = Stability of mRNA-LNPs according to storage temperature and duration; format: physicochemical; details: for Normalized EE % D-1 / PDI D-1 / Size (nm) D-1: day 1; for Normalized EE % D-7 / PDI D-7 / Size (nm) D-7: day 7; for Normalized EE % D-30 / PDI D-30 / Size (nm) D-30: day 30
Experimental: Stability of fLuc mRNA-LNPs produced using various ionizable lipids according to the method of Example 27, was assessed by storing the LNPs at 4° C. and 25° C. At 1, 7, and 30 days post-manufacture, the size, PDI, and encapsulation efficiency (EE) of each mRNA-LNPs samples were measured using the methods described in Experimental Examples 2 and 3.

[4] = In vivo toxicity evaluation, serum biochemical analysis (AST, ALT, ALP, BUN, creatinine); details: serum of mice after injection of fLuc mRNA-LNP, FIG. 9
Experimental: Toxicity induced by fLuc mRNA-LNPs prepared using various ionizable lipids according to the method of Example 27 was evaluated through serum biochemical analysis following […]. injection into mice.
Specifically, 50-100 μL of serum was collected each mouse at 24 and 48 hours after intravenous injection using the retro-orbital bleeding method. The serum biochemical analysis was performed using Hitachi 7150 Chemistry Analyzer, measuring indicators of liver function—aspartate aminotransferase (AST), alanine aminotransferase (ALT), alkaline phosphatase (ALP)- and indicators of kidney function—blood urea nitrogen (BUN) and creatinine.

[5] = test system: IL-1β mRNA level in HEK-293T cells; details: human
[6] = test system: female C57BL/6 mice; test: Protein expression efficiency of fLuc mRNA-LNPs after intramuscular injection (IVIS whole-body luminescence); format: in vivo; details: for Total flux 1 hour / Total flux 3 hours / Total flux 6 hours / Total flux 48 hours / Total flux 72 hours / Total flux: fLuc mRNA-LNP, intramuscular injection, luminescence at injection site, mice; for Total flux 1 hour: 1 hour after administration; for Total flux 3 hours: 3 hours after administration; for Total flux 6 hours: 6 hours after administration; for Total flux 48 hours: 48 hours after administration; for Total flux 72 hours: 72 hours after administration; for Total flux: after administration; for Fold increase in total flux at 3 h, MC3: relative to control LNP formulated with MC3; for Fold increase in total flux at 3 h, MC3 / Fold increase in total flux at 3 h, SM-102: 3 hours after intramuscular injection; for Fold increase in total flux at 3 h, SM-102: relative to control LNP formulated with SM-102
Summary of the method: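 Female C57BL/6 mice (6-10 weeks, n≥4) got intramuscular fLuc mRNA-LNPs at 0.1-0.5 mg/kg mRNA. Injection-site luminescence was imaged under isoflurane at 1-72 h, 10 min after i.p. D-luciferin (200 μL, 15 mg/mL). Expression at 3 h was taken relative to MC3 or SM-102 LNPs.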

[7] = test system: CCL2 mRNA level in HEK-293T cells; details: human
[8] = test system: CCL3 mRNA level in HEK-293T cells; details: human
[9] = mRNA encapsulation efficiency (Quant-IT RiboGreen RNA assay); format: physicochemical; details: mRNA encapsulation efficiency of mRNA-LNP made with the ionizable lipid; average of two measurements
Summary of the method: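 LNP samples read with RiboGreen reagent in TE buffer with or without 2% Triton X-100 (37 °C, 10 min) to release encapsulated mRNA. Fluorescence at λex 480/λem 520 nm; EE % calculated from the two readings, averaged over two independent measurements.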

| SMILES | IL-6 Average [1] | PDI [2] | size (nm) Number [2] [nm] | Zeta (mV) [2] [mV] | Normalized EE % D-1 ([3]; fLuc mRNA-LNP stored at 4° C.) [%] | Size (nm) D-1 ([3]; fLuc mRNA-LNP stored at 4° C.) [nm] | Normalized EE % D-7 ([3]; fLuc mRNA-LNP stored at 4° C.) [%] | PDI D-7 ([3]; fLuc mRNA-LNP stored at 4° C.) | Size (nm) D-7 ([3]; fLuc mRNA-LNP stored at 4° C.) [nm] | Normalized EE % D-1 ([3]; fLuc mRNA-LNP stored at 25° C.) [%] | Size (nm) D-1 ([3]; fLuc mRNA-LNP stored at 25° C.) [nm] | Normalized EE % D-7 ([3]; fLuc mRNA-LNP stored at 25° C.) [%] | PDI D-7 ([3]; fLuc mRNA-LNP stored at 25° C.) | Size (nm) D-7 ([3]; fLuc mRNA-LNP stored at 25° C.) [nm] | IL-1β Average [5] | Total flux 1 hour [6] | Total flux 3 hours [6] | Total flux 6 hours [6] | Total flux 48 hours [6] | Total flux 72 hours [6] | further results |
| --- | --- | --- | --- | --- | --- | --- | --- | --- | --- | --- | --- | --- | --- | --- | --- | --- | --- | --- | --- | --- | --- |
| CCCCCCCCCCCOC(=O)CCCCCN(CCCCCCCC(=O)OC(CCCCCCCC)CCCCCCCC)CC(O)CCCCNC(=O)c1cc[nH]c1 (stereo not shown) [Compound 17, Heptadecan-9-yl 8-((2-hydroxy-6-(1H-pyrrole-3-carboxamido)hexyl)(6-oxo-6-(undecyloxy)hexyl)amino)octanoate] | 0.94 | 0.100 | 151 | −6.80 | 94.0 | 151.2 | 91.3 | 0.098 | 133.8 | 94.0 | 151.2 | 90.2 | 0.114 | 134.2 | 0.70 | 6.53E+07 | 2.23E+08 | 1.02E+08 | 4.80E+06 | 4.21E+06 | PDI D-1 ([3]; fLuc mRNA-LNP stored at 4° C.): 0.100; Normalized EE % D-30 ([3]; fLuc mRNA-LNP stored at 4° C.): 89.8%; PDI D-30 ([3]; fLuc mRNA-LNP stored at 4° C.): 0.081; Size (nm) D-30 ([3]; fLuc mRNA-LNP stored at 4° C.): 130.7 nm; Normalized EE % D-30 ([3]; fLuc mRNA-LNP stored at 25° C.): 88.6%; PDI D-30 ([3]; fLuc mRNA-LNP stored at 25° C.): 0.128; Size (nm) D-30 ([3]; fLuc mRNA-LNP stored at 25° C.): 128.1 nm; ALP level compared to control groups (PBS and SM-102) [4]: similar; AST level compared to control groups (PBS and SM-102) [4]: lower; BUN level compared to control groups (PBS and SM-102) [4]: similar; protein expression compared to the control group (SM-102) ([6]; 3 hours post intramuscular injection, in words): significantly higher protein expression; Total flux [6]: 1.00E+07; Fold increase in total flux at 3 h, MC3 [6]: 18.09; Fold increase in total flux at 3 h, SM-102 [6]: 1.99; CCL2 Average [7]: 0.65; CCL3 Average [8]: 1.10; EE (%) [9]: 94% |
| CCCCCCCCCCCOC(=O)CCCCCN(CCCCCCCC(=O)OC(CCCCCCCC)CCCCCCCC)CC(O)CCCCNC(=O)c1nccn1C (stereo not shown) [Compound 36, Heptadecan-9-yl 8-((2-hydroxy-6-(1-methyl-1H-imidazole-2-carboxamido)hexyl)(6-oxo-6-(undecyloxy)hexyl)amino)octanoate] | 1.30 | 0.073 | 112 | −3.19 | 87.2 | 111.9 | 89.1 | 0.146 | 114.4 | 87.2 | 111.9 | 89.0 | 0.123 | 110.6 | 0.96 | 1.62E+07 | 4.51E+07 | 3.18E+07 | 3.79E+06 | 3.09E+06 | Normalized EE % D-30 ([3]; fLuc mRNA-LNP stored at 4° C.): 86.6%; PDI D-30 ([3]; fLuc mRNA-LNP stored at 4° C.): 0.076; Size (nm) D-30 ([3]; fLuc mRNA-LNP stored at 4° C.): 120.9 nm; PDI D-1 ([3]; fLuc mRNA-LNP stored at 25° C.): 0.073; Normalized EE % D-30 ([3]; fLuc mRNA-LNP stored at 25° C.): 83.8%; PDI D-30 ([3]; fLuc mRNA-LNP stored at 25° C.): 0.092; Size (nm) D-30 ([3]; fLuc mRNA-LNP stored at 25° C.): 119.2 nm; Total flux [6]: 1.03E+07; Fold increase in total flux at 3 h, MC3 [6]: 3.65; Fold increase in total flux at 3 h, SM-102 [6]: 0.40; CCL2 Average [7]: 1.86; CCL3 Average [8]: 2.40; EE (%) [9]: 87% |
| CCCCCCCCCCCOC(=O)CCCCCN(CCCCCCCC(=O)OC(CCCCCCCC)CCCCCCCC)CC(O)CCCCNC(=O)c1c(O)ccn1C (stereo not shown) [Compound 24, Heptadecan-9-yl 8-((2-hydroxy-6-(3-hydroxy-1-methyl-1H-pyrrole-2-carboxamido)hexyl)(6-oxo-6-(undecyloxy)hexyl)amino)octanoate] | 0.87 | 0.114 | 137 | −7.89 | 89.7 | 136.9 | 90.5 | 0.114 | 123.7 | 89.7 | 136.9 | 89.6 | 0.163 | 113.5 | 0.99 | 6.70E+06 | 3.49E+07 | 4.45E+07 | 3.86E+06 | 3.66E+06 | PDI D-1 ([3]; fLuc mRNA-LNP stored at 25° C.): 0.114; Total flux [6]: 7.85E+06; Fold increase in total flux at 3 h, MC3 [6]: 2.82; Fold increase in total flux at 3 h, SM-102 [6]: 0.31; CCL2 Average [7]: 0.96; CCL3 Average [8]: 1.36; EE (%) [9]: 90% |
